± gives the expanded uncertainty stated by the source.
Conditions: 323.15 K, Liquid, Vibrating tube method

CCCCCCC(=O)OCC(COC(=O)CCCCCC)(COC(=O)CCCCCC)COC(=O)CCCCCC [pentaerythritol tetraheptanoate]
Conditions	mass density [kg/m3]
21056 kPa	969.3 ± 1.2
21077 kPa	969.3 ± 1.2
21094 kPa	969.4 ± 1.2
21132 kPa	969.3 ± 1.2
21278 kPa	969.4 ± 1.2
21299 kPa	969.5 ± 1.2
21316 kPa	969.5 ± 1.2
21334 kPa	969.5 ± 1.2
21352 kPa	969.4 ± 1.2
21372 kPa	969.6 ± 1.2
21390 kPa	969.6 ± 1.2
21408 kPa	969.8 ± 1.2
21430 kPa	969.6 ± 1.2
21448 kPa	969.6 ± 1.2
21466 kPa	969.5 ± 1.2
21483 kPa	969.6 ± 1.2
21504 kPa	969.5 ± 1.2
21522 kPa	969.6 ± 1.2
21540 kPa	969.7 ± 1.2
21562 kPa	969.6 ± 1.2
21580 kPa	969.6 ± 1.2
21601 kPa	969.7 ± 1.2
21619 kPa	969.8 ± 1.2
21637 kPa	969.7 ± 1.2
21659 kPa	969.7 ± 1.2
21677 kPa	969.8 ± 1.2
21695 kPa	969.8 ± 1.2
21716 kPa	969.7 ± 1.2
21734 kPa	969.8 ± 1.2
21753 kPa	969.7 ± 1.2
21775 kPa	969.9 ± 1.2
21793 kPa	969.8 ± 1.2
21830 kPa	969.9 ± 1.2
21852 kPa	969.8 ± 1.2
21871 kPa	969.8 ± 1.2
21930 kPa	970 ± 1.2
21950 kPa	969.9 ± 1.2
21968 kPa	969.8 ± 1.2
21990 kPa	969.9 ± 1.2
22070 kPa	970 ± 1.2
22089 kPa	969.9 ± 1.2
22112 kPa	969.9 ± 1.2
22131 kPa	970 ± 1.2
22150 kPa	969.9 ± 1.2
22173 kPa	970 ± 1.2
22193 kPa	970 ± 1.2
22213 kPa	970 ± 1.2
22232 kPa	970 ± 1.2
22275 kPa	970.2 ± 1.2
22313 kPa	970.1 ± 1.2
22336 kPa	970.1 ± 1.2
22356 kPa	970.1 ± 1.2
22380 kPa	970.1 ± 1.2
22399 kPa	970.2 ± 1.2
22419 kPa	970.2 ± 1.2
22442 kPa	970.1 ± 1.2
22463 kPa	970.2 ± 1.2
22483 kPa	970.2 ± 1.2
22502 kPa	970.2 ± 1.2
22522 kPa	970.2 ± 1.2
22546 kPa	970.1 ± 1.2
22566 kPa	970.2 ± 1.2
22585 kPa	970.4 ± 1.2
22609 kPa	970.3 ± 1.2
22629 kPa	970.3 ± 1.2
22653 kPa	970.3 ± 1.2
22717 kPa	970.3 ± 1.2
22758 kPa	970.4 ± 1.2
22779 kPa	970.4 ± 1.2
22804 kPa	970.4 ± 1.2
22824 kPa	970.4 ± 1.2
22848 kPa	970.5 ± 1.2
22869 kPa	970.4 ± 1.2
22889 kPa	970.4 ± 1.2
22913 kPa	970.4 ± 1.2
23043 kPa	970.5 ± 1.2
23090 kPa	970.5 ± 1.2
23337 kPa	970.7 ± 1.2
23406 kPa	970.7 ± 1.2
23640 kPa	970.9 ± 1.2
23662 kPa	970.8 ± 1.2
23684 kPa	970.9 ± 1.2
23706 kPa	970.9 ± 1.2
23734 kPa	970.9 ± 1.2
23970 kPa	971.1 ± 1.2
23993 kPa	971.2 ± 1.2
24020 kPa	971.1 ± 1.2
24043 kPa	971 ± 1.2
24070 kPa	971.1 ± 1.2
24093 kPa	971.2 ± 1.2
24116 kPa	971.2 ± 1.2
24143 kPa	971.2 ± 1.2
24166 kPa	971.1 ± 1.2
24190 kPa	971.2 ± 1.2
24215 kPa	971.1 ± 1.2
24242 kPa	971.3 ± 1.2
24265 kPa	971.3 ± 1.2
24289 kPa	971.3 ± 1.2
24317 kPa	971.3 ± 1.2
24340 kPa	971.4 ± 1.2
24364 kPa	971.3 ± 1.2
24387 kPa	971.3 ± 1.2
24415 kPa	971.3 ± 1.2
24466 kPa	971.4 ± 1.2
24515 kPa	971.5 ± 1.2
24540 kPa	971.4 ± 1.2
24564 kPa	971.4 ± 1.2
24616 kPa	971.5 ± 1.2
24669 kPa	971.6 ± 1.2
24770 kPa	971.5 ± 1.2
25086 kPa	971.7 ± 1.2
25112 kPa	971.8 ± 1.2
25142 kPa	971.7 ± 1.2
25168 kPa	971.8 ± 1.2
25198 kPa	971.9 ± 1.2
25224 kPa	971.9 ± 1.2
25249 kPa	971.7 ± 1.2
25275 kPa	971.9 ± 1.2
25306 kPa	971.9 ± 1.2
25330 kPa	971.9 ± 1.2
25356 kPa	971.9 ± 1.2
25439 kPa	971.9 ± 1.2
25465 kPa	972 ± 1.2
25496 kPa	972 ± 1.2
25522 kPa	972.1 ± 1.2
25549 kPa	972 ± 1.2
25575 kPa	972 ± 1.2
25607 kPa	972.1 ± 1.2
25663 kPa	972.2 ± 1.2
25691 kPa	972.2 ± 1.2
25743 kPa	972.1 ± 1.2
25775 kPa	972.2 ± 1.2
25801 kPa	972.2 ± 1.2
26029 kPa	972.3 ± 1.2
26061 kPa	972.3 ± 1.2
26121 kPa	972.4 ± 1.2
26148 kPa	972.5 ± 1.2
26175 kPa	972.3 ± 1.2
26208 kPa	972.5 ± 1.2
26235 kPa	972.4 ± 1.2
26263 kPa	972.6 ± 1.2
26296 kPa	972.3 ± 1.2
26325 kPa	972.4 ± 1.2
26352 kPa	972.5 ± 1.2
26386 kPa	972.5 ± 1.2
26413 kPa	972.5 ± 1.2
26441 kPa	972.4 ± 1.2
26475 kPa	972.6 ± 1.2
26503 kPa	972.6 ± 1.2
26531 kPa	972.6 ± 1.2
26559 kPa	972.6 ± 1.2
26594 kPa	972.6 ± 1.2
26622 kPa	972.6 ± 1.2
26658 kPa	972.7 ± 1.2
26682 kPa	972.6 ± 1.2
26717 kPa	972.7 ± 1.2
26745 kPa	972.7 ± 1.2
26901 kPa	972.8 ± 1.2
26930 kPa	972.9 ± 1.2
26959 kPa	972.9 ± 1.2
26995 kPa	972.9 ± 1.2
27304 kPa	973.1 ± 1.2
27340 kPa	973.1 ± 1.2
27371 kPa	973 ± 1.2
27401 kPa	973.1 ± 1.2
27437 kPa	973.1 ± 1.2
27468 kPa	973.1 ± 1.2
27498 kPa	973 ± 1.2
27534 kPa	973.2 ± 1.2
27632 kPa	973.3 ± 1.2
27663 kPa	973.3 ± 1.2
27694 kPa	973.3 ± 1.2
27794 kPa	973.3 ± 1.2
27926 kPa	973.5 ± 1.2
27963 kPa	973.5 ± 1.2
27996 kPa	973.5 ± 1.2
28065 kPa	973.4 ± 1.2
28096 kPa	973.6 ± 1.2
28128 kPa	973.5 ± 1.2
28160 kPa	973.5 ± 1.2
28199 kPa	973.6 ± 1.2
28231 kPa	973.6 ± 1.2
28270 kPa	973.6 ± 1.2
28302 kPa	973.6 ± 1.2
28334 kPa	973.7 ± 1.2
28471 kPa	973.7 ± 1.2
28511 kPa	973.9 ± 1.2
28544 kPa	973.6 ± 1.2
28577 kPa	973.8 ± 1.2
28617 kPa	973.8 ± 1.2
28650 kPa	973.8 ± 1.2
28689 kPa	973.9 ± 1.2
28723 kPa	973.8 ± 1.2
28864 kPa	973.9 ± 1.2
29014 kPa	974 ± 1.2
29565 kPa	974.4 ± 1.2
29607 kPa	974.4 ± 1.2
29642 kPa	974.4 ± 1.2
29686 kPa	974.4 ± 1.2
29724 kPa	974.5 ± 1.2
29761 kPa	974.5 ± 1.2
29798 kPa	974.5 ± 1.2
29834 kPa	974.6 ± 1.2
29878 kPa	974.6 ± 1.2
29915 kPa	974.6 ± 1.2
29959 kPa	974.6 ± 1.2
29995 kPa	974.7 ± 1.2
30032 kPa	974.6 ± 1.2
30076 kPa	974.8 ± 1.2
30114 kPa	974.7 ± 1.2
30151 kPa	974.7 ± 1.2
30237 kPa	974.8 ± 1.2
30274 kPa	974.7 ± 1.2
30312 kPa	974.8 ± 1.2
30358 kPa	974.7 ± 1.2
30396 kPa	974.8 ± 1.2
30434 kPa	974.9 ± 1.2
32025 kPa	975.7 ± 1.2
32076 kPa	975.7 ± 1.2
32119 kPa	975.8 ± 1.2
32170 kPa	975.9 ± 1.2
32213 kPa	975.8 ± 1.2
32256 kPa	975.9 ± 1.2
32308 kPa	976 ± 1.2

— the NIST ThermoML archive (doi:10.1021/je060271a)
